{
  "source": "PubChem BioAssay (NCI)",
  "assay_in_all_cases": "NCI tumour cell line growth inhibition, 48 h",
  "key": {"[1]": {"test_system": "SW-620 colon"}, "[2]": {"test_system": "MALME-3M melanoma"}, "[3]": {"test_system": "PC-3 prostate"}, "[4]": {"test_system": "HCT-116 colon"}, "[5]": {"test_system": "SF-539 CNS"}, "[6]": {"test_system": "SK-OV-3 ovarian"}, "[7]": {"test_system": "HOP-92 NSCLC"}, "[8]": {"test_system": "MOLT-4 leukemia"}, "[9]": {"test_system": "MDA-MB-231 breast"}, "[10]": {"test_system": "MDA-MB-435"}, "[11]": {"test_system": "OVCAR-3 ovarian"}, "[12]": {"test_system": "A498 renal"}, "[13]": {"test_system": "RXF 393 renal"}, "[14]": {"test_system": "HOP-62 NSCLC"}, "[15]": {"test_system": "COLO 205 colon"}, "[16]": {"test_system": "NCI-H522 lung"}, "[17]": {"test_system": "HS 578T breast"}, "[18]": {"test_system": "SNB-19 CNS"}, "[19]": {"test_system": "TK-10 renal"}, "[20]": {"test_system": "DU-145 prostate"}, "[21]": {"test_system": "OVCAR-5 ovarian"}, "[22]": {"test_system": "786-0 renal"}, "[23]": {"test_system": "M14 melanoma"}, "[24]": {"test_system": "SK-MEL-2 melanoma"}, "[25]": {"test_system": "NCI/ADR-RES ovarian"}, "[26]": {"test_system": "CCRF-CEM leukemia"}, "[27]": {"test_system": "SF-295 CNS"}, "[28]": {"test_system": "LOX IMVI melanoma"}, "[29]": {"test_system": "KM12 colon"}, "[30]": {"test_system": "SR leukemia"}, "[31]": {"test_system": "UO-31 renal"}, "[32]": {"test_system": "BT-549 breast"}, "[33]": {"test_system": "HCC-2998 colon"}, "[34]": {"test_system": "OVCAR-4 ovarian"}, "[35]": {"test_system": "CAKI-1 renal"}, "[36]": {"test_system": "SK-MEL-5 melanoma"}, "[37]": {"test_system": "ACHN renal"}, "[38]": {"test_system": "NCI-H23 lung"}, "[39]": {"test_system": "UACC-257 melanoma"}, "[40]": {"test_system": "RPMI-8226 leukemia"}, "[41]": {"test_system": "EKVX NSCLC"}, "[42]": {"test_system": "HCT-15 colon"}, "[43]": {"test_system": "UACC-62 melanoma"}, "[44]": {"test_system": "U251 CNS"}, "[45]": {"test_system": "A549 NSCLC"}, "[46]": {"test_system": "SK-MEL-28 melanoma"}, "[47]": {"test_system": "SNB-75 CNS"}, "[48]": {"test_system": "SF-268 CNS"}, "[49]": {"test_system": "K-562 leukemia"}},
  "note": "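Growth conditions: 96-well plates. Treatment: test compound, 48 hours, 5 concentrations. Analysis: linear interpolation between bracketing concentrations; unreached endpoints set to highest concentration. Abbreviation: GI50, concentration required for 50% inhibition of growth. TGI is the concentration that stops growth completely.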",
  "data": [
    {"smiles": "Cc1ccc2ccc3ccc(C)nc3c2n1.Cc1ccc2ccc3ccc(C)nc3c2n1.Oc1c(Cl)cc(Cl)c2ccc(CN3CCCCC3)nc12.[Ru]", "values": [
      {"measurement": "GI50", "setting": "[1]", "value": 381, "unit": "nM"},
      {"measurement": "TGI", "setting": "[1]", "value": 1610, "unit": "nM"},
      {"measurement": "GI50", "setting": "[2]", "value": 248, "unit": "nM"},
      {"measurement": "TGI", "setting": "[2]", "value": 666, "unit": "nM"},
      {"measurement": "GI50", "setting": "[3]", "value": 303, "unit": "nM"},
      {"measurement": "TGI", "setting": "[3]", "value": 1500, "unit": "nM"},
      {"measurement": "GI50", "setting": "[4]", "value": 247, "unit": "nM"},
      {"measurement": "TGI", "setting": "[4]", "value": 1230, "unit": "nM"},
      {"measurement": "GI50", "setting": "[5]", "value": 366, "unit": "nM"},
      {"measurement": "TGI", "setting": "[5]", "value": 1290, "unit": "nM"},
      {"measurement": "GI50", "setting": "[6]", "value": 293, "unit": "nM"},
      {"measurement": "TGI", "setting": "[6]", "value": 1070, "unit": "nM"},
      {"measurement": "GI50", "setting": "[7]", "value": 109, "unit": "nM"},
      {"measurement": "TGI", "setting": "[7]", "value": 835, "unit": "nM"},
      {"measurement": "GI50", "setting": "[8]", "value": 461, "unit": "nM"},
      {"measurement": "TGI", "setting": "[8]", "value": 2220, "unit": "nM"},
      {"measurement": "GI50", "setting": "[9]", "value": 295, "unit": "nM"},
      {"measurement": "TGI", "setting": "[9]", "value": 909, "unit": "nM"},
      {"measurement": "GI50", "setting": "[10]", "value": 333, "unit": "nM"},
      {"measurement": "TGI", "setting": "[10]", "value": 1230, "unit": "nM"},
      {"measurement": "GI50", "setting": "[11]", "value": 387, "unit": "nM"},
      {"measurement": "TGI", "setting": "[11]", "value": 1380, "unit": "nM"},
      {"measurement": "GI50", "setting": "[12]", "value": 1760, "unit": "nM"},
      {"measurement": "TGI", "setting": "[12]", "value": 4020, "unit": "nM"},
      {"measurement": "GI50", "setting": "[13]", "value": 714, "unit": "nM"},
      {"measurement": "TGI", "setting": "[13]", "value": 1990, "unit": "nM"},
      {"measurement": "GI50", "setting": "[14]", "value": 409, "unit": "nM"},
      {"measurement": "TGI", "setting": "[14]", "value": 1410, "unit": "nM"},
      {"measurement": "GI50", "setting": "[15]", "value": 195, "unit": "nM"},
      {"measurement": "TGI", "setting": "[15]", "value": 429, "unit": "nM"},
      {"measurement": "GI50", "setting": "[16]", "value": 363, "unit": "nM"},
      {"measurement": "TGI", "setting": "[16]", "value": 2130, "unit": "nM"},
      {"measurement": "GI50", "setting": "[17]", "value": 354, "unit": "nM"},
      {"measurement": "TGI", "setting": "[17]", "value": 2320, "unit": "nM"},
      {"measurement": "GI50", "setting": "[18]", "value": 331, "unit": "nM"},
      {"measurement": "TGI", "setting": "[18]", "value": 1280, "unit": "nM"},
      {"measurement": "GI50", "setting": "[19]", "value": 734, "unit": "nM"},
      {"measurement": "TGI", "setting": "[19]", "value": 2070, "unit": "nM"},
      {"measurement": "GI50", "setting": "[20]", "value": 494, "unit": "nM"},
      {"measurement": "TGI", "setting": "[20]", "value": 4910, "unit": "nM"},
      {"measurement": "GI50", "setting": "[21]", "value": 599, "unit": "nM"},
      {"measurement": "TGI", "setting": "[21]", "value": 3010, "unit": "nM"},
      {"measurement": "GI50", "setting": "[22]", "value": 542, "unit": "nM"},
      {"measurement": "TGI", "setting": "[22]", "value": 1780, "unit": "nM"},
      {"measurement": "GI50", "setting": "[23]", "value": 383, "unit": "nM"},
      {"measurement": "TGI", "setting": "[23]", "value": 1440, "unit": "nM"},
      {"measurement": "GI50", "setting": "[24]", "value": 613, "unit": "nM"},
      {"measurement": "TGI", "setting": "[24]", "value": 1840, "unit": "nM"},
      {"measurement": "GI50", "setting": "[25]", "value": 2700, "unit": "nM"},
      {"measurement": "TGI", "setting": "[25]", "value": 7990, "unit": "nM"},
      {"measurement": "GI50", "setting": "[26]", "value": 423, "unit": "nM"},
      {"measurement": "TGI", "setting": "[26]", "value": 2200, "unit": "nM"},
      {"measurement": "GI50", "setting": "[27]", "value": 286, "unit": "nM"},
      {"measurement": "TGI", "setting": "[27]", "value": 1160, "unit": "nM"},
      {"measurement": "GI50", "setting": "[28]", "value": 341, "unit": "nM"},
      {"measurement": "TGI", "setting": "[28]", "value": 1230, "unit": "nM"},
      {"measurement": "GI50", "setting": "[29]", "value": 411, "unit": "nM"},
      {"measurement": "TGI", "setting": "[29]", "value": 1520, "unit": "nM"},
      {"measurement": "GI50", "setting": "[30]", "value": 345, "unit": "nM"},
      {"measurement": "TGI", "setting": "[30]", "value": 1750, "unit": "nM"},
      {"measurement": "GI50", "setting": "[31]", "value": 1720, "unit": "nM"},
      {"measurement": "TGI", "setting": "[31]", "value": 3880, "unit": "nM"},
      {"measurement": "GI50", "setting": "[32]", "value": 337, "unit": "nM"},
      {"measurement": "TGI", "setting": "[32]", "value": 931, "unit": "nM"},
      {"measurement": "GI50", "setting": "[33]", "value": 414, "unit": "nM"},
      {"measurement": "TGI", "setting": "[33]", "value": 1580, "unit": "nM"},
      {"measurement": "GI50", "setting": "[34]", "value": 362, "unit": "nM"},
      {"measurement": "TGI", "setting": "[34]", "value": 1840, "unit": "nM"},
      {"measurement": "GI50", "setting": "[35]", "value": 1430, "unit": "nM"},
      {"measurement": "TGI", "setting": "[35]", "value": 2830, "unit": "nM"},
      {"measurement": "GI50", "setting": "[36]", "value": 675, "unit": "nM"},
      {"measurement": "TGI", "setting": "[36]", "value": 1860, "unit": "nM"},
      {"measurement": "GI50", "setting": "[37]", "value": 1650, "unit": "nM"},
      {"measurement": "TGI", "setting": "[37]", "value": 3230, "unit": "nM"},
      {"measurement": "GI50", "setting": "[38]", "value": 300, "unit": "nM"},
      {"measurement": "TGI", "setting": "[38]", "value": 1130, "unit": "nM"},
      {"measurement": "GI50", "setting": "[39]", "value": 350, "unit": "nM"},
      {"measurement": "TGI", "setting": "[39]", "value": 1230, "unit": "nM"},
      {"measurement": "GI50", "setting": "[40]", "value": 223, "unit": "nM"},
      {"measurement": "TGI", "setting": "[40]", "value": 876, "unit": "nM"},
      {"measurement": "GI50", "setting": "[41]", "value": 363, "unit": "nM"},
      {"measurement": "TGI", "setting": "[41]", "value": 2210, "unit": "nM"},
      {"measurement": "GI50", "setting": "[42]", "value": 1280, "unit": "nM"},
      {"measurement": "TGI", "setting": "[42]", "value": 2770, "unit": "nM"},
      {"measurement": "GI50", "setting": "[43]", "value": 445, "unit": "nM"},
      {"measurement": "TGI", "setting": "[43]", "value": 1670, "unit": "nM"},
      {"measurement": "GI50", "setting": "[44]", "value": 218, "unit": "nM"},
      {"measurement": "TGI", "setting": "[44]", "value": 1160, "unit": "nM"},
      {"measurement": "GI50", "setting": "[45]", "value": 326, "unit": "nM"},
      {"measurement": "TGI", "setting": "[45]", "value": 1280, "unit": "nM"},
      {"measurement": "GI50", "setting": "[46]", "value": 513, "unit": "nM"},
      {"measurement": "TGI", "setting": "[46]", "value": 1780, "unit": "nM"},
      {"measurement": "GI50", "setting": "[47]", "value": 243, "unit": "nM"},
      {"measurement": "TGI", "setting": "[47]", "value": 1120, "unit": "nM"},
      {"measurement": "GI50", "setting": "[48]", "value": 447, "unit": "nM"},
      {"measurement": "TGI", "setting": "[48]", "value": 2210, "unit": "nM"},
      {"measurement": "GI50", "setting": "[49]", "value": 253, "unit": "nM"},
      {"measurement": "TGI", "setting": "[49]", "value": 1890, "unit": "nM"}
    ]}
  ]
}
